{"source": "paper PMC5674027", "about": "(Scientific Reports, 2017)", "key": {"[1]": {"tested_on": "breast cancer cells", "settings": "cited from earlier work"}, "[2]": {"tested_on": "claudin-1", "assay_type": "cell-based, human", "settings": "100 µM, 24 h"}, "[3]": {"tested_on": "claudin-3 (HT1080/CLDN3 cells)", "assay_type": "cell-based"}, "[4]": {"tested_on": "CLDN3", "assay_type": "cell-based, human", "settings": "n = 3"}, "[5]": {"tested_on": "Caco-2 cells", "assay_type": "cell-based, human", "settings": "1–100 µM, 24 h; n = 3", "description": "For analysis of thiostrepton-induced cytotoxicity on Caco-2 cells, a lactate dehydrogenase (LDH) release assay was performed according to the manufacturer’s instructions. After being treated with thiostrepton for 24 h, the level of LDH released into the culture medium was analysed. Treatment with 0.2% Tween-20 was used as a 100% lysis control. Absorbance was measured at a wavelength of 570 nm by using a TriStar LB 941 microplate reader (Berthold Technologies)."}, "[6]": {"tested_on": "claudin-4 (HT1080/CLDN4 cells)", "assay_type": "cell-based"}, "[7]": {"biological_target": "interaction between claudin-4 and C-CPE (Homo sapiens, UniProt O14493)", "sequence (O14493 whole entry, looked up)": "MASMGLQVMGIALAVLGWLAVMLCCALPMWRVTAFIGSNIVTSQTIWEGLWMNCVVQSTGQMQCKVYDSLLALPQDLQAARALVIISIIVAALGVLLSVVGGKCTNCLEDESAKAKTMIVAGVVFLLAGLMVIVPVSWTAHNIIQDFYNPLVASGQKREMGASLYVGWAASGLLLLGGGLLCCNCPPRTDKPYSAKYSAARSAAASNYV", "test": "biochemical", "assay_type": "binding"}, "[8]": {"tested_on": "claudin-1", "assay_type": "cell-based, human", "settings": "n = 3"}, "[9]": {"tested_on": "ZO-1", "assay_type": "cell-based, human", "settings": "100 µM, 24 h"}, "[10]": {"biological_target": "recombinant human claudin-4 protein (Homo sapiens, UniProt O14493)", "sequence (O14493 whole entry)": "as the sequence (O14493 whole entry, looked up) above", "test": "biochemical", "assay_type": "binding"}, "[11]": {"tested_on": "rat jejunum", "assay_type": "in vivo", "settings": "n = 4"}, "[12]": {"tested_on": "claudin-3", "assay_type": "cell-based, human", "settings": "n = 3"}, "[13]": {"tested_on": "Caco-2 cell monolayer", "assay_type": "cell-based, human", "description": "Caco-2 cells were allowed to differentiate for 10 to 14 days on Transwell filters (diameter, 6.5 mm; pore size, 0.4 µm; Corning, Corning, MA, USA) before their use in TER and paracellular flux assays. Caco-2 cell monolayers had TER values of 600–800 Ω•cm^2. TER values were measured by using a Millicell-ERS epithelial volt–ohm meter (Millipore Corporation, Billerica, MA, USA). For the paracellular tracer flux assay, 100 µM dialysed FD-4 was added to the medium in the upper chamber. After 1 h of incubation, the medium was collected from the bottom chamber, and the amount of FD-4 was measured with a TriStar LB 941 microplate reader (Berthold Technologies)."}, "[14]": {"tested_on": "occludin", "assay_type": "cell-based, human", "settings": "100 µM, 24 h"}, "[15]": {"tested_on": "various human cancer cell lines", "settings": "cited from earlier work"}, "[16]": {"tested_on": "rat jejunum", "settings": "in vivo"}, "[17]": {"tested_on": "Caco-2 cell monolayers", "assay_type": "cell-based, human", "settings": "100 µM thiostrepton, apical sulfo-NHS-SS-biotin (606.7 Da) 10 min; Caco-2 monolayer", "description": "Figure 5 Thiostrepton effect on paracellular tracer permeability. Caco-2 cell monolayers were treated with 100 µM thiostrepton or left untreated (control) and then apically incubated with sulfo-NHS-SS-biotin (606.7 Da; red) and counterstained with anti-ZO-1 antibody (green; TJ stain) and DAPI (blue; nuclear stain). […] Bar = 10 µm.\nLocalisation of claudins-1 and -4, occludin and ZO-1 on Caco-2 cells was assessed by immunofluorescence microscopy. Caco-2 cells were seeded on Transwell filters (diameter, 12 mm; pore size, 0.4 µm; Corning). After treatment with thiostrepton (100 µM) or no treatment for 24 h, the Caco-2 cells were fixed with methanol–acetone (1:1 v/v) for 5 min and then permeabilised with 0.2% Triton X-100 in PBS for 10 min. After non-specific binding had been blocked by incubation with 1% BSA in TBS buffer (20 mM Tris-HCl, pH 7.4, 40 mM NaCl) containing 0.05% Tween-20 (T-TBS) for 1 h, the cells were incubated with anti-claudin-1, -claudin-4, -occludin and -ZO-1 antibodies in 1% BSA in T-TBS for 1 h. After incubation of the cells with fluorescent secondary antibodies for 1 h, the immunofluorescence images were observed under an immunofluorescence microscope (Keyence, Tokyo, Japan). For visualisation of biotin passing through the TJ, Caco-2 cells treated with 100 µM thiostrepton or left untreated were apically labelled with sulfo-NHS-SS-biotin (606.7 Da) for 10 min. […]"}, "[18]": {"tested_on": "C-CPE", "assay_type": "binding, Clostridium perfringens"}, "[19]": {"tested_on": "claudin-4", "assay_type": "cell-based, human", "settings": "100 µM, 24 h"}, "[20]": {"tested_on": "claudin-4", "assay_type": "cell-based, human", "settings": "n = 3"}, "[21]": {"tested_on": "melanoma cells", "settings": "cited from earlier work"}, "[22]": {"tested_on": "CLDN1", "assay_type": "cell-based, human", "settings": "n = 3"}, "[23]": {"tested_on": "CLDN4", "assay_type": "cell-based, human", "settings": "n = 3"}}, "data": [{"smiles": "C=C(NC(=O)C(=C)NC(=O)c1csc(C2=N[C@@H]3c4csc(n4)[C@H]4NC(=O)c5csc(n5)[C@H]([C@](C)(O)[C@@H](C)O)NC(=O)[C@H]5CSC(=N5)/C(=C/C)NC(=O)[C@H]([C@@H](C)O)NC(=O)c5csc(n5)[C@]3(CC2)NC(=O)[C@H](C)NC(=O)C(=C)NC(=O)[C@H](C)NC(=O)[C@H]([C@@H](C)CC)N[C@@H]2C=Cc3c([C@H](C)O)cc(nc3[C@H]2O)C(=O)O[C@@H]4C)n1)C(N)=O", "note": "[Thiostrepton]", "values": [{"measurement": "effect on breast cancer cells", "setting": "[1]", "result": "leads to cell-cycle arrest and cell death by down-regulating FOXM1 gene expression"}, {"measurement": "cellular localisation of claudin-1", "setting": "[2]", "result": "did not alter the cellular localisation"}, {"measurement": "inhibition of C-CPE interaction with claudin-3", "setting": "[3]", "result": "inhibited the interaction between C-CPE and claudin-3, but this effect was substantially weaker than that for claudin-4"}, {"measurement": "claudin-3 mRNA level", "setting": "[4]", "result": "significantly decreased"}, {"measurement": "cytotoxicity to Caco-2 cells (LDH release)", "setting": "[5]", "result": "not cytotoxic to Caco-2 cells in the concentration range of 1–100 µM"}, {"measurement": "inhibition of C-CPE binding to claudin-4 on the cell membrane", "setting": "[6]", "result": "inhibited the binding of C-CPE to claudin-4 on the cell membrane"}, {"measurement": "IC50", "setting": "[7]", "result": 1020, "unit": "nM"}, {"measurement": "TR-FRET (% of control), inhibition of TR-FRET signal by interaction between claudin-4 and C-CPE", "setting": "[7]", "result": "66.24 % of control"}, {"measurement": "claudin-1 protein, 1% Triton-X-insoluble fraction", "setting": "[8]", "result": "unchanged"}, {"measurement": "claudin-1 protein, 1% Triton-X-soluble fraction", "setting": "[8]", "result": "significantly decreased"}, {"measurement": "cellular localisation of ZO-1", "setting": "[9]", "result": "did not alter the cellular localisation"}, {"measurement": "Kd", "setting": "[10]", "result": 6.62, "unit": "µM"}, {"measurement": "maximum plasma FD-4 concentration", "setting": "[11]", "result": 0.6, "unit": "µg/mL"}, {"measurement": "rat jejunal absorption of FD-4", "setting": "[11]", "result": "enhanced rat jejunal absorption of FD-4 in a dose-dependent manner"}, {"measurement": "claudin-3 protein, 1% Triton-X-insoluble fraction", "setting": "[12]", "result": "unchanged"}, {"measurement": "claudin-3 protein, 1% Triton-X-soluble fraction", "setting": "[12]", "result": "significantly decreased"}, {"measurement": "TER (%)", "setting": "[13]; 10 µM, 24 h, percentage of the TER value at 0 h", "result": 55.2, "unit": "%"}, {"measurement": "attenuation of barrier function of Caco-2 cells, comparison among hits", "setting": "[13]; among the hit compounds, Supplementary Figure 4, 10 µM, 24 h", "result": "greatest attenuation of the barrier function of Caco-2 cells"}, {"measurement": "paracellular flux of FD-4", "setting": "[13]; thiostrepton 1–100 µM, 24 h, Caco-2 apical to basal, 100 µM FD-4 1 h, fluorescence plate reader, n = 3", "result": "dose-dependent increase in the paracellular flux of FD-4"}, {"measurement": "effect on TER value of Caco-2 cells", "setting": "[13]; thiostrepton 1–100 µM, 12, 18, 24 h, then 24 h after medium change, n = 3", "result": "reversibly decreased the TER value of Caco-2 cells in a time- and dose-dependent manner"}, {"measurement": "cellular localisation of occludin", "setting": "[14]", "result": "did not alter the cellular localisation"}, {"measurement": "anti-tumour activity", "setting": "[15]", "result": "shows anti-tumour activity in various human cancer cell lines"}, {"measurement": "intestinal tissue toxicity (histochemical analysis)", "setting": "[16]", "result": "no evidence of intestinal tissue toxicity"}, {"measurement": "biotin permeation", "setting": "[17]", "result": "biotin signal was detected within the paracellular space"}, {"measurement": "binding to C-CPE", "setting": "[18]", "result": "did not bind to C-CPE"}, {"measurement": "cellular localisation of claudin-4", "setting": "[19]", "result": "did not alter the cellular localisation"}, {"measurement": "claudin-4 protein, 1% Triton-X-insoluble fraction", "setting": "[20]", "result": "increased"}, {"measurement": "claudin-4 protein, 1% Triton-X-soluble fraction", "setting": "[20]", "result": "increased"}, {"measurement": "effect on melanoma cells", "setting": "[21]", "result": "suppresses cell growth and induces apoptosis"}, {"measurement": "claudin-1 mRNA level", "setting": "[22]", "result": "significantly decreased"}, {"measurement": "claudin-4 mRNA level", "setting": "[23]", "result": "increased"}]}]}
